pIC50: −log10 of the molar value.
How the values were obtained:
RPMI-8226 = test: cells; type: cell-based; settings: Homo sapiens
COLO 205 = test: NCI 60 cell line screen (SRB), colon cancer; type: cell-based; settings: Homo sapiens; for CC50: read-out: Log10 LC50 (converted); for IC (TGI): read-out: Log10 TGI (converted)
MALME-3M = test: cells; type: cell-based; settings: Homo sapiens; for IC (TGI): read-out: Log10 TGI (converted)
SK-MEL-28 = test: cells; type: cell-based; settings: Homo sapiens
UACC-257 = test: cells; type: cell-based; settings: Homo sapiens
UACC-62 = test: cells; type: cell-based; settings: Homo sapiens; for CC50: read-out: Log10 LC50 (converted)
OVCAR-5 = test: NCI 60 cell line screen (SRB), ovarian cancer; type: cell-based; settings: Homo sapiens; for CC50: read-out: Log10 LC50 (converted); for IC (TGI): read-out: Log10 TGI (converted)
SN12C = test: cells; type: cell-based; settings: Homo sapiens; for GI50: read-out: Log10 GI50 (converted); for CC50: read-out: Log10 LC50 (converted)
HS 578T = test: cells; type: cell-based; settings: Homo sapiens; for CC50: read-out: Log10 LC50 (converted); for IC (TGI): read-out: Log10 TGI (converted)
[1] = tested on: chloroquine-sensitive P. falciparum (NF54); test: In vitro antimalarial activity ([3H]hypoxanthine incorporation); type: cell-based
Procedure: Activity was determined by measuring the incorporation of [^3 H]hypoxanthine, by the methods of Desjardins and Milhouse, with the following modofications, see […].; Haynes, […]. Antimicrob. Agents Chemother., 16:710 (1979); Milhous, W. K.; Weatherly, […].; Antimicrob. Agents Chemother., 27: 525 (1985). […] Parasitemia was maintained at 0.05-3% and doubling time at approximately 15 hours by twice weekly change of medium and replenishment with fresh erythrocytes. […] Sigma-Aldrich #27,043-1). DMSO solutions were diluted 500-fold in medium, serially diluted in 0.2% DMSO in medium (to maintain constant solvent concentration), then 100 μL aliquots were pipetted into microtiter plate wells (Costar 3595). […] Plates included at least 8 wells of no drug controls (4 with and 4 without DMSO) and 4 wells of uninfected erythrocytes. […] Cells were harvested (Brandel MB-48R) onto GF-C glass filters (Brandel). The filters were washed five times with 3 mL water per sample spot, dried under a heat lamp, and counted (Beckman Model LS-6500) in scintillation cocktail (ICN Cytoscint). Decays per minute (dpm) values were downloaded and analyzed (Power MFacintosh 7200/90; Microsoft Excel 5.0), to yield the mean and standard deviation at each drug concentration.

HL-60(TB) = test: cells; settings: Homo sapiens
[2] = tested on: P. vivax and P. falciparum; settings: cited from earlier work
P. falciparum = settings: two Hanian strains; cited from earlier work
[3] = cited from earlier work
CCRF-CEM = test: NCI 60 cell line screen (SRB), leukemia; type: cell-based; settings: Homo sapiens; for IC (TGI): read-out: Log10 TGI (converted)
HCC-2998 = test: NCI 60 cell line screen (SRB), colon cancer; type: cell-based; settings: Homo sapiens
SF-268 = test: NCI 60 cell line screen (SRB), CNS cancer; type: cell-based; settings: Homo sapiens; for GI50: read-out: Log10 GI50 (converted)
SF-539 = test: cells; type: cell-based; settings: Homo sapiens; for GI50: read-out: Log10 GI50 (converted); for IC (TGI): read-out: Log10 TGI (converted)
OVCAR-3 = test: NCI 60 cell line screen (SRB), ovarian cancer; type: cell-based; settings: Homo sapiens; for GI50: read-out: Log10 GI50 (converted)
786-0 = test: cells; type: cell-based; settings: Homo sapiens; for IC (TGI): read-out: Log10 TGI (converted)
MCF7/ADR-RES = test: cells; type: cell-based; settings: Homo sapiens; for GI50: read-out: Log10 GI50 (converted)
MDA-MB-435 = test: cells; type: cell-based; settings: Homo sapiens; for IC (TGI): read-out: Log10 TGI (converted)
[4] = stability of pyranosyl fluorides; type: physicochemical; settings: after purification
Description: Coupling of either the α-fluoride or the β-fluoride VI with trimethylaluminum in the presence of boron trifluoride-etherate gave 10β-methyl derivative VII where n=1 and R=CH3 with almost complete stereoselectivity, thereby implicating a common oxygen-stabilized C-10 carbocation intermediate. The relative stereochemistry at carbons 9 and 10 was established by the characteristic ^1 H NMR chemical shifts and coupling constants of the methine hydrogen atoms at these positions (J9,10 =10-11 Hz for trans and J9,10 =5.6-6.7 Hz for cis). […] Several dimethyl aluminum acetylides, prepared from Me2 AlCl and the corresponding lithium acetylides, coupled smoothly to form exclusively the 10β-acetylenic derivatives. Di- and tri-methoxylated benzenes and heteroaromatic N-methylpyrrole and furan coupled to produce exclusively, in stereochemical contrast, the 10α-oriented derivatives. Apparently, relatively small nucleophiles approach the intermediate cation from the β-face of the molecule, whereas relatively large aryl and heteroaryl nucleophiles approach from the α-face (i.e. directed by and trans to the C-9 methyl group). Coupling of pyranosyl fluoride VI with N-methylpyrrole proceeded equally well on 400 mg scale as on 20 mg scale, and larger scale executions of this and of the other coupling reactions reported here are not expected to be a problem.

CAKI-1 = test: NCI 60 cell line screen (SRB), renal cancer; settings: Homo sapiens; for CC50: CAKI-1, read-out: Log10 LC50 (converted)
SF-295 = test: cells; type: cell-based; settings: Homo sapiens
[5] = read-out: Log10 LC50 (converted)
[6] = read-out: Log10 GI50 (converted)
[7] = read-out: Log10 TGI (converted)

SMILES | CC50 (COLO 205) [µM] | IC (TGI) (COLO 205) [µM] | IC (TGI) (MALME-3M) [µM] | CC50 (UACC-62) [µM] | CC50 (OVCAR-5) [µM] | IC (TGI) (OVCAR-5) [µM] | GI50 (SN12C) [µM] | CC50 (SN12C) [µM] | CC50 (HS 578T) [µM] | IC (TGI) (HS 578T) [µM] | IC (TGI) (CCRF-CEM) [µM] | GI50 (SF-268) [µM] | GI50 (SF-539) [µM] | IC (TGI) (SF-539) [µM] | GI50 (OVCAR-3) [µM] | IC (TGI) (786-0) [µM] | GI50 (MCF7/ADR-RES) [µM] | IC (TGI) (MDA-MB-435) [µM] | CC50 (CAKI-1) [µM] | further results
C[C@@H]1CC[C@H]2[C@@H](C)C(=O)O[C@@H]3O[C@@]4(C)CC[C@@H]1[C@]32OO4 [Artemisinin] | > 100 | > 100 | 87.1 | > 100 | > 100 | > 100 | 61.7 | > 100 | > 100 | > 100 |  |  |  |  |  |  |  |  |  | CC50 (RPMI-8226; [5]): > 100 µM; IC (TGI) (RPMI-8226; read-out: Log10 TGI): > 100 µM; CC50 (MALME-3M; [5]): > 100 µM; CC50 (SK-MEL-28; [5]): > 100 µM; IC (TGI) (SK-MEL-28; read-out: Log10 TGI): > 100 µM; CC50 (UACC-257; [5]): > 100 µM; pIC50 ([1]; Plasmodium falciparum, NF54): 8.00; GI50 (HL-60(TB); HL-60, read-out: Log10 GI50 (converted)): 55 µM; CC50 (HL-60(TB); HL-60, read-out: Log10 LC50 (converted)): > 100 µM; IC (TGI) (HL-60(TB); HL-60, read-out: Log10 TGI): 100 µM; clinical cure ([2]; 2099 cases, P. vivax and P. falciparum about 3:1): clinical cure of all patients; suppression of parasitemias ([2]; P. vivax and P. falciparum): effective at suppressing the parasitemias; potency in vitro compared with chloroquine (P. falciparum): comparable to that of chloroquine; solubility in water [3]: insolubility in water
C[C@H]1[C@@H](F)O[C@@H]2O[C@@]3(C)CC[C@H]4[C@H](C)CC[C@@H]1[C@@]24OO3 [Compound VI, 10β-Fluorodeoxoartemisinin] |  |  |  |  |  |  |  |  |  |  | 53.7 | 13.8 | 14.1 | 40.7 | 2.88 | 14.8 | 3.55 | 7.24 | 47.9 | GI50 (CCRF-CEM; CCRP-CEM, read-out: Log10 GI50 (converted)): 0.562 µM; GI50 (HCC-2998; [6]): 14.5 µM; IC (TGI) (HCC-2998; [7]): 12.9 µM; GI50 (SK-MEL-28; [6]): 17.8 µM; GI50 (786-0; [6]): 1.55 µM; GI50 (MDA-MB-435; [6]): 0.692 µM; CC50 (MDA-MB-435; [5]): 34.7 µM; stability of solid [4]: stable crystalline solid; GI50 (CAKI-1; CAKI-1, read-out: Log10 GI50 (converted)): 724 µM
C[C@H]1[C@@H](CC(=O)c2ccc(C(=O)C[C@H]3O[C@@H]4O[C@@]5(C)CC[C@H]6[C@H](C)CC[C@@H]([C@H]3C)[C@@]46OO5)cc2)O[C@@H]2O[C@@]3(C)CC[C@H]4[C@H](C)CC[C@@H]1[C@@]24OO3 [Dimer 21] | 0.0759 | 0.0407 | 28.2 | 95.5 | 60.3 | 14.5 | 0.0105 | 85.1 | 72.4 | 15.1 | 45700 | 0.0631 | 0.0166 | 14.5 | 0.692 | 14.8 | 0.0105 | 25.1 | 27.5 | IC (TGI) (SF-268; [7]): 79.4 µM; GI50 (SF-295; [6]): 4.79 µM; CC50 (SF-295; [5]): 77.6 µM; IC (TGI) (SF-295; [7]): 25.1 µM; CC50 (SF-539; [5]): 38 µM; GI50 (MALME-3M; [6]): 0.0468 µM; IC (TGI) (UACC-257; [7]): 17.8 µM; GI50 (UACC-62; [6]): 0.0724 µM; IC (TGI) (UACC-62; [7]): 27.5 µM; IC (TGI) (OVCAR-3; [7]): 28.2 µM; IC (TGI) (SN12C; [7]): 12.3 µM; CC50 (MCF7/ADR-RES; [5]): 79.4 µM; IC (TGI) (MCF7/ADR-RES; [7]): 14.1 µM; IC50 compared with artemisinin ([1]; in words): lower than that of artemisinin; IC (TGI) (CAKI-1; CAKI-1, read-out: Log10 TGI): 0.0891 µM
